Laboratory results taken from publication PMC6792352, “Limited Chemical Structural Diversity Found to Modulate Thyroid Hormone Receptor in the Tox21 Chemical Library” (Environmental Health Perspectives, 2019).
Structures can show the parent of a compound that is named as a salt.

Experiment: in vitro
Details: rat, gh3-tre-luc cells, AC50 (uM) modified / 1000

| SMILES | CC50 at 24 h [µM] |
| --- | --- |
| OCCC(F)(F)C(F)(F)C(F)(F)C(F)(F)C(F)(F)C(F)(F)F [6:2 Fluorotelomer alcohol] | > 90 |
| CC(=O)OCCc1ccccc1 [2-Phenylethyl acetate] | > 90 |
| O=C1CCCN1CCO [1-(2-Hydroxyethyl)pyrrolidin-2-one] | > 90 |
| COc1ccnc(C[S+]([O-])c2nc3ccc(OC(F)F)cc3[nH]2)c1OC (centres unmarked) [Pantoprazole sodium] | > 90 |
| O=C(O)CCCCCCCCCCCC(=O)O [Tridecanedioic acid] | > 90 |
| CC(=O)OCCCc1ccccc1 [3-Phenylpropyl acetate] | > 90 |
| CCCCCCCCCCCCCC(=O)OCC(O)CO (centres unmarked) [Tetradecanoic acid, 2,3-dihydroxypropyl ester] | > 90 |
| Cc1cc2nc3c(=O)[nH]c(=O)nc-3n(C[C@H](O)[C@H](O)[C@H](O)COP(=O)(O)OP(=O)(O)OC[C@H]3O[C@@H](n4cnc5c(N)ncnc54)[C@H](O)[C@@H]3O)c2cc1C [Flavin adenine dinucleotide disodium] | > 50 |
| O=c1[nH]c(=O)n([C@H]2C[C@H](O)[C@@H](CO)O2)cc1I [Idoxuridine] | > 20 |
| O=C1c2ccccc2C(=O)c2ccccc21 [Anthraquinone] | > 50 |
| CC(C)(CO)CO [2,2-Dimethylpropane-1,3-diol] | > 90 |
| COc1cccc2c1cc([N+](=O)[O-])c1c(C(=O)O)cc3c(c12)OCO3 [Sodium aristolochate-I] | 5.9 |
| CN(C)CCCN1c2ccccc2Sc2ccccc21 [Promazine hydrochloride] | 4.95 |
| CC/C=C\CCCCCO [(6Z)-Non-6-en-1-ol] | > 90 |
| CCCCCCCCC(CO)CCCCCC (centres unmarked) [2-Hexyl-1-decanol] | > 90 |
| CCCCC [Pentane] | > 90 |
| Cc1cc(N)c2cc(NC(=O)Nc3ccc4nc(C)cc(N)c4c3)ccc2n1 [Aminoquinuride dihydrochloride] | 35 |
| CC(C)(C)C(=O)C(Oc1ccc(Cl)cc1)n1cncn1 (centres unmarked) [Triadimefon] | > 90 |
| Cc1cccnc1 [3-Methylpyridine] | > 90 |
| Oc1c(I)cc(I)c2cccnc12 [Iodoquinol] | > 50 |
| NCCOCCO [2-(2-Aminoethoxy)ethanol] | > 90 |
| O=S(=O)(O)CC(S)CS (centres unmarked) [Sodium 2,3-dimercaptopropanesulfonate hydrate] | > 50 |
| CC(=O)N[C@@H]1[C@@H](O)[C@H](O)[C@@H](CO)O[C@H]1O [N-Acetylglucosamine] | > 50 |

| SMILES | CC50 at 24 h [µM] |
| --- | --- |
| CC(=O)/C=C/C1=C(C)CCCC1(C)C [beta-Ionone] | > 90 |
| CCCCCc1ccco1 [2-Pentylfuran] | > 60 |
| CC[C@@]1(O)C[C@H](O[C@H]2C[C@H](N(C)C)[C@H](O[C@H]3C[C@H](O)[C@H](O[C@H]4CCC(=O)[C@H](C)O4)[C@H](C)O3)[C@H](C)O2)c2c(cc3c(c2O)C(=O)c2c(O)cccc2C3=O)[C@H]1C(=O)OC [Aclarubicin hydrochloride] | 0.114 |
| O=Cc1c(Cl)cccc1Cl [2,6-Dichlorobenzaldehyde] | > 90 |
| Cn1cnc2c(O)nc(N)nc21 [9-Methylguanine] | > 90 |
| CC(=O)C=CC1=C(C)CCCC1(C)C [4-(2,6,6-Trimethyl-cyclohex-1-enyl)-but-3-en-2-one] | > 90 |
| CSc1nnc(C(C)(C)C)c(=O)n1N [Metribuzin] | > 90 |
| CC(C)/N=c1\cc2n(-c3ccc(Cl)cc3)c3ccccc3nc-2cc1Nc1ccc(Cl)cc1 [Clofazimine] | 5.75 |
| CCCCCCCCCCCCCCCCBr [1-Bromohexadecane] | > 30 |
| CC(=O)OCC(C)OC(C)=O (centres unmarked) [Propylene glycol diacetate] | > 90 |
| CCCCCCCC/C=C\CCCCCCCCN [(Z)-9-Octadecenylamine] | > 50 |
| CCCCCCCCCCCCCC[N+](C)(C)C [Myristyltrimethylammonium chlorideN,N,N-Trimethyltetradecan-1-aminium chloride] | 9.07 |
| CC(C)=CCCC(C)CC(=O)O (centres unmarked) [Citronellic acid] | > 90 |
| CCCCCCCCCCCCCCCCOS(=O)(=O)O [Sodium hexyldecyl sulfate] | 50.6 |
| NCc1ccc(S(N)(=O)=O)cc1 [Mafenide hydrochloride] | > 20 |
| COc1cc2c(cc1OC)C(C(C(=O)N(CCc1ccc(OC)c(OC)c1OC)CCc1ccc(OC)c(OC)c1OC)c1ccccc1)=NCC2 (centres unmarked) [Pinokalant hydrochloride] | 21.9 |
| CC(C)(O)c1cnn2c(-c3ccc(F)c(-c4c(F)cccc4C#N)c3)cnc2n1 [PharmaGSID_47330] | > 90 |
| CCCCCCCCCCCCN(CCCCCCCCCCCC)CCCCCCCCCCCC [Tridodecylamine] | > 90 |
| CCCCC(CC)COC(=O)/C=C/c1ccc(OC)cc1 (stereo not drawn) [2-Ethylhexyl trans-4-methoxycinnamate] | > 90 |
| Cc1cc(C(C)(C)c2cc(C)c(O)c(C)c2)cc(C)c1O [4,4'-Propane-2,2-diylbis(2,6-dimethylphenol)] | 16.9 |
| COc1cc([N+](=O)[O-])ccc1N [2-Methoxy-4-nitroaniline] | 40.9 |
| CN1CCCN=C1COC(=O)C(O)(c1ccccc1)C1CCCCC1 (centres unmarked) [Oxyphencyclimine hydrochloride] | > 50 |
| Cc1occc1S [2-Methyl-3-furanthiol] | > 90 |

| SMILES | CC50 at 24 h [µM] |
| --- | --- |
| COc1cc(NCCCC(C)N)c2ncccc2c1 (centres unmarked) [Quinocide] | 15.1 |
| C=COC(=O)C(C)(C)CCCCCC [Vinyl neodecanoate] | > 90 |
| CC(=O)CCCCn1c(=O)c2c(ncn2C)n(C)c1=O [Pentoxifylline] | > 20 |
| O=C(OCC(COC(=O)c1cccnc1)(COC(=O)c1cccnc1)COC(=O)c1cccnc1)c1cccnc1 [Niceritrol] | > 50 |
| O=P1(N(CCCl)CCCl)NCCCO1 (centres unmarked) [Cyclophosphamide monohydrate] | > 90 |
| CC(=O)O[C@H]1C[C@@H]2CC[C@@H]3[C@H](CC[C@@]4(C)[C@H]3C[C@H]([N+]3(C)CCCCC3)[C@@H]4OC(C)=O)[C@@]2(C)C[C@@H]1[N+]1(C)CCCCC1 [Pancuronium bromide] | > 50 |
| NC1CCN(c2cccc(Cl)n2)CC1 [SR 57227A hydrochloride] | 24.7 |
| COc1ccc([C@@H]2CC(=O)c3c(O)cc(O[C@@H]4O[C@H](CO[C@@H]5O[C@@H](C)[C@H](O)[C@@H](O)[C@H]5O)[C@@H](O)[C@H](O)[C@H]4O)cc3O2)cc1OC [Methyl hesperidin] | > 90 |
| C[n+]1ccccc1/C=N/O [Pralidoxime chloride] | > 20 |
| CCOC(=O)c1cccc(N)c1 [Ethyl 3-aminobenzoate methanesulfonic acid salt] | > 50 |
| O=S(=O)(O)c1ccc2ccccc2c1 [Sodium 2-naphthalenesulfonate] | > 90 |
| CC(C)[N+](C)(CCOC(=O)C1c2ccccc2Oc2ccccc21)C(C)C [Propantheline bromide] | > 90 |
| CCC(=O)c1ccc2c(c1)N(CCCN(C)C)c1ccccc1S2 [Propionylpromazine hydrochloride] | 6.21 |
| C[N+]1(C)[C@@H]2C[C@@H](OC(=O)C(O)(c3cccs3)c3cccs3)C[C@H]1[C@@H]1O[C@@H]12 [Tiotropium bromide] | > 50 |
| COc1cc(C(=O)NC2CCN(C)CC2)ccc1Nc1ncc2c(n1)N(C1CCCC1)CC(F)(F)C(=O)N2C [PharmaGSID_48511] | 1.83 |
| COc1cc(C[C@@H](C)N)c(OC)cc1Br [R-(-)-2,5-Dimethoxy-4-bromoamphetamine hydrochloride] | 56.1 |
| NC(=O)c1ccccc1N [2-Aminobenzamide] | > 90 |
| C=CC(C)(CCC=C(C)C)OC(=O)/C=C/c1ccccc1 (centres unmarked) [Linalyl cinnamate] | > 90 |
| O=C(Cl)c1ccc(C(=O)Cl)cc1 [1,4-Benzenedicarbonyl dichloride] | > 90 |
| NS(=O)(=O)c1cc2c(cc1C(F)(F)F)NCNS2(=O)=O [Hydroflumethiazide] | > 20 |
| C(=C/c1ccccc1)/c1ccccc1 [cis-Stilbene] | > 90 |
| CC1=C(C(=O)O)N2C(=O)[C@@H](NC(=O)[C@H](N)C3=CCC=CC3)[C@H]2SC1 [Cephradine] | > 50 |

Same assay, conditions: rat, gh3-tre-luc cells, AC50 (uM) modified / 1000, Tox21_110001=Tox21_111742; viability, 1 nM T3 present, 24 h

| SMILES | CC50 at 24 h [µM] |
| --- | --- |
| c1cc2c(c(N3CCNCC3)c1)OCCO2 [Eltoprazine hydrochloride] | > 50 |

Same assay, conditions: rat, gh3-tre-luc cells, AC50 (uM) modified / 1000, Tox21_110001=Tox21_201433; viability, 1 nM T3 present, 24 h

| SMILES | CC50 at 24 h [µM] |
| --- | --- |
| O=C(CCl)CCl [1,3-Dichloropropanone] | 32.6 |

Same assay, conditions: rat, gh3-tre-luc cells, AC50 (uM) modified / 1000, Tox21_110001=Tox21_201798; viability, 1 nM T3 present, 24 h

| SMILES | CC50 at 24 h [µM] |
| --- | --- |
| O=P(OCC(Br)CBr)(OCC(Br)CBr)OCC(Br)CBr (centres unmarked) [Tris(2,3-dibromopropyl) phosphate] | 30.4 |

Same assay, conditions: rat, gh3-tre-luc cells, AC50 (uM) modified / 1000, Tox21_110001=Tox21_202305; viability, 1 nM T3 present, 24 h

| SMILES | CC50 at 24 h [µM] |
| --- | --- |
| Cc1ccccc1O [o-Cresol] | > 90 |

Same assay, conditions: rat, gh3-tre-luc cells, AC50 (uM) modified / 1000, Tox21_110001=Tox21_202811; viability, 1 nM T3 present, 24 h

| SMILES | CC50 at 24 h [µM] |
| --- | --- |
| N#CNC#N [Cyanamide,cyano-,sodium salt] | > 90 |

Same assay, conditions: rat, gh3-tre-luc cells, AC50 (uM) modified / 1000, Tox21_110001=Tox21_301750; viability, 1 nM T3 present, 24 h

| SMILES | CC50 at 24 h [µM] |
| --- | --- |
| CC(C)(C)c1cc([N+](=O)[O-])cc(C(C)(C)C)c1O [2,6-Di-tert-butyl-4-nitrophenol] | 11 |

Same assay, conditions: rat, gh3-tre-luc cells, AC50 (uM) modified / 1000, Tox21_110001=Tox21_302404; viability, 1 nM T3 present, 24 h

| SMILES | CC50 at 24 h [µM] |
| --- | --- |
| CCCCC(CC)COC(=O)c1c(Br)c(Br)c(Br)c(Br)c1C(=O)OCC(CC)CCCC (centres unmarked) [Bis(2-ethylhexyl) tetrabromophthalate] | > 70 |

Same assay, conditions: rat, gh3-tre-luc cells, AC50 (uM) modified / 1000, Tox21_110001=Tox21_302809; viability, 1 nM T3 present, 24 h

| SMILES | CC50 at 24 h [µM] |
| --- | --- |
| O=C(CCl)CCl [1,3-Dichloropropanone] | 27.3 |

Same assay, conditions: rat, gh3-tre-luc cells, AC50 (uM) modified / 1000, Tox21_110001=Tox21_302967; viability, 1 nM T3 present, 24 h

| SMILES | CC50 at 24 h [µM] |
| --- | --- |
| O=P(OCC(Br)CBr)(OCC(Br)CBr)OCC(Br)CBr (centres unmarked) [Tris(2,3-dibromopropyl) phosphate] | 54.5 |
